In ChEMBL document CHEMBL1147168, “Quinuclidines as selective agonists for alpha-7 nicotinic acetylcholine receptors” (Bioorg Med Chem Lett, 2007):

Biological target: Neuronal acetylcholine receptor subunit alpha-7 (Homo sapiens, UniProt P36544)
Assay: Agonist activity at nAChR alpha-7 expressed in Xenopus oocytes
Assay type: functional, cell-based, Oocyte

Sequence of Neuronal acetylcholine receptor subunit alpha-7 (P36544 whole entry): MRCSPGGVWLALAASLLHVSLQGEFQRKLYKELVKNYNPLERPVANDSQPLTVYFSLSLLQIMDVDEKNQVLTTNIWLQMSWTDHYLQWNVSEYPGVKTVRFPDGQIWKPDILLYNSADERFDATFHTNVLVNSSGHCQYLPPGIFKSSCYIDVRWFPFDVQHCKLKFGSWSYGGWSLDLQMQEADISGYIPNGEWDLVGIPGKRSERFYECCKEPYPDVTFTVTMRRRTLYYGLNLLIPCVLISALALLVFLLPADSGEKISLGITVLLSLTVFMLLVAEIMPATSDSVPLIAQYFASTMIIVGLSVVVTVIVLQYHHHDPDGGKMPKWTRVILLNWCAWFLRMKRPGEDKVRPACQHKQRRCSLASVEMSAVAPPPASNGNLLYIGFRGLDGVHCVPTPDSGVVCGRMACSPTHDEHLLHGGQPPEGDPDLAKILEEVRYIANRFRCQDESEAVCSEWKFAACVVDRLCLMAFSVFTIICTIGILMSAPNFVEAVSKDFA

Row | Structure (SMILES) | EC50 [nM]
1 | COc1ccc(/C=C2/CN3CCC2CC3)cc1 | 1300
2 | C(=C1\CN2CCC1CC2)/c1ccccc1 | 1500
